Measured values published in patent US8933245B2, “Preservation of ergothioneine” (ELC Management LLC, priority 2009, dated 2015).
Where “and” joins values, the source holds several entries; their conditions need not be identical. Equal entries are not always repeated. Values belong to the molecule of their own block, whether it stands above or below them.

Experiments:
[1] = Preventing trimethylamine odor by addition of compounds before heating ergothioneine with sodium hydroxide; format: physicochemical; conditions: for % EGT (w/v): boiled 10 minutes, HPLC
Method: Samples were prepared in glass tubes with screw caps with about 0.05% (w/v) ergothioneine in water, a test sample, at the indicated concentration, and 0.1N NaOH (except for the first tube, in which NaOH was omitted as a negative control). The pH of each sample was determined by litmus paper, and then the tubes capped and placed in a boiling water bath for 10 minutes. The tubes were then cooled to room temperature, and then each one was uncapped and smelled by three testers, each of whom scored the odor. The scores were converted to a scale of 0 (no odor) to 3 (strong fishy trimethylamine odor) and then averaged.

[2] = Stability of ergothioneine during storage with and without citric acid (HPLC); format: physicochemical; conditions: percent of starting concentration, 2 mM in water; for % EGT with citric acid: 0.2% citric acid
Method: The samples were stored at 4° C., 25° C. or 40° C. for 30 or 60 days and then analyzed by HPLC. Each vial was used once and then discarded. Each measurement was made in triplicate and the results averaged. A standard curve of ergothioneine concentration was constructed at each time point to quantify the amount of ergothioneine in each vial. Each amount in Table 2 is expressed as percentage of the amount measured in the initial sample at the start of the experiment.

[3] = Stability of ergothioneine solution at acidic pH on heating; format: physicochemical; conditions: 0.05% solution, pH 5, heating 40 C for 60 days
Description: It has been observed that ergothioneine is quite stable at acidic pH. At pH 5 a 0.05% solution remains within 1% of its concentration after heating 40 C for 60 days. However, the reports of its stability in alkali are mixed in the literature. See, for example, Philip Hartman. “Ergothioneine as antioxidant”, Methods Enzymol. 186:310-318, 1990 at p. 311 (“ . . . the sulfur atom of Ergothioneine is remarkably stable to alkali”); H. Heath and G. Toennies. “The preparation and properties of Ergothioneine disulphide”, J. Chem. Soc. pages 204-210, (1958) at p. 204 (“the sulphur is completely unaffected by boiling 50% aqueous potassium hydroxide.”); Oxis International, Inc. Compound Monograph “L-Ergothioneine. Revision III”, at p. […] “Synthesis of L-(+)-Ergothioneine”, J. Org. Chem. 60:6296-6301, 1995 at p. 6296 (“this explains its stability toward oxidative dimerization”).

[4] = Formation of yellow addition product of ergothioneine and sodium metabisulfite; format: physicochemical
Method: The vials were sealed and mixing the samples was avoided. The samples were incubated and color development observed. The solutions were examined at 1 hour, and the optical density at 405 nm was measured at 2 hours (Table 9).
The cap was removed and the solution was then shaken for 3 to 4 minutes and ambient air was bubbled through it to drive out the dissolved sulfur dioxide gas. […] Therefore the loss of ergothioneine after addition of sodium metabisulfite is due to formation of an addition product which is reversible, and the ergothioneine is not permanently lost.

[5] = as above; format: physicochemical; conditions: 1.25% ergothioneine and 5% sodium metabisulfite; cap removed, shaken, ambient air bubbled; after 6 to 7 minutes
[6] = cited from earlier work; for Ka: acid listed with one ionized form
[7] = Formation of fishy amine odor by boiling ergothioneine with sodium hydroxide or other components; format: physicochemical
Method: This became the assay system used to test agents and procedures for reduction or prevention of the odor.
Four samples of a 5 ml ergothioneine solution at 0.1% (w/v) were prepared in glass test tubes with screw caps. To the first was added 5 ml of water, to the second 5 ml of 0.2% (w/v) sodium metabisulfite, to the third 4 ml of water and 1 ml of 1N sodium hydroxide, and to the fourth 5 ml of 0.2% (w/v) citric acid. […] The samples were boiled for 10 minutes and each one was smelled.
This allowed the testing of methods to inhibit the formation of the odor and to suppress the odor after formation.

[8] = test sample 0.01%, about 0.05% ergothioneine, 0.1N NaOH, litmus paper
[9] = ergothioneine 1.25%, sodium metabisulfite 5.0%
[10] = ergothioneine 1.25%, sodium metabisulfite 7.5%
[11] = ergothioneine 1.25%, sodium metabisulfite 10%
[12] = ergothioneine 1.25%, sodium metabisulfite 12.5%
[13] = ergothioneine 1.25%, sodium metabisulfite 15%
[14] = ergothioneine 1.25%, sodium metabisulfite 17.5%
[15] = ergothioneine 1.25%, sodium metabisulfite 20%
[16] = ergothioneine 1.25%, sodium metabisulfite 22.5%
[17] = ergothioneine 1.25%, sodium metabisulfite 25%
[18] = ergothioneine 1.25%, sodium metabisulfite […]
[19] = ergothioneine […], sodium metabisulfite 0
[20] = test sample 0.05%, about 0.05% ergothioneine, 0.1N NaOH, litmus paper
[21] = test sample 0.2%, about 0.05% ergothioneine, 0.1N NaOH, litmus paper

Compound: Cl [Hydrochloric acid]
- % EGT (w/v) ([1]; test sample 0.0001%, 0.1N NaOH): 0.050 % (w/v)
- pH ([1]; test sample 0.0001%, about 0.05% ergothioneine, 0.1N NaOH, litmus paper): 11.5
- % EGT (w/v) ([1]; test sample 0.01%, 0.1N NaOH): 0.050 % (w/v)
- pH [1, 8]: 10

Compound: CC(=O)O [acetic acid]
- % EGT (w/v) ([1]; test sample 0.01%, 0.1N NaOH): 0.050 % (w/v)
- pH [1, 8]: 10.5
- % EGT (w/v) ([1]; test sample 0.05%, 0.1N NaOH): 0.052 % (w/v)
- pH [1, 20]: 8
- % EGT (w/v) ([1]; test sample 0.2%, 0.1N NaOH): 0.052 % (w/v)
- pH [1, 21]: 4
- Ka [6]: 1.74E−5

Compound: CCCCC(=O)O [pentanoic acid]
- Ka [6]: 3.31E−5

Compound: O=C1O[C@H]([C@@H](O)CO)C(O)=C1O [ascorbic acid]
- % EGT (w/v) ([1]; test sample 0.01%, 0.1N NaOH): 0.050 % (w/v)
- pH [1, 8]: 10.5
- % EGT (w/v) ([1]; test sample 0.05%, 0.1N NaOH): 0.050 % (w/v)
- pH [1, 20]: 10.5
- % EGT (w/v) ([1]; test sample 0.2%, 0.1N NaOH): 0.047 % (w/v)
- pH [1, 21]: 5

Compound: [Na+].[OH-] [sodium hydroxide]
- pH [7]: approximately 10

Compound: CCCCCCC(=O)O [heptanoic acid]
- Ka [6]: 1.29E−5

Compound: O=S(O)O [sulfurous acid]
- Ka (1) ([6]; first ionized form): 1.41E−2
- Ka (2) ([6]; second ionized form): 6.31E−8

Compound: O=c1[nH]c(=O)c2[nH]c(=O)[nH]c2[nH]1 [uric acid]
- Ka [6]: 1.29E−4

Other lines, results leading:

- % EGT with citric acid ([2]; 4° C., 30 days): 101.6%
- % EGT with citric acid ([2]; 4° C., 60 days): 105.8%
- % EGT with citric acid ([2]; 25° C., 30 days): 101.5%
- % EGT with citric acid ([2]; 25° C., 60 days): 102.2%
- % EGT with citric acid ([2]; 40° C., 30 days): 101.1%
- % EGT with citric acid ([2]; 40° C., 60 days): 99.6%
- % EGT without citric acid ([2]; 4° C., 30 days): 96.1%
- % EGT without citric acid ([2]; 4° C., 60 days): 106.5%
- % EGT without citric acid ([2]; 25° C., 30 days): 84.0%
- % EGT without citric acid ([2]; 25° C., 60 days): 100.5%
- % EGT without citric acid ([2]; 40° C., 30 days): 86.3%
- % EGT without citric acid ([2]; 40° C., 60 days): 99.8%
- change of concentration [3]: ≤ 1%
- color of solution ([4]; 1.25% ergothioneine and 5% sodium metabisulfite, one week at room temperature in a capped tube): intense lemon yellow
- Color description at 1 h [4, 9]: Near colorless
- OD405 at 2 hr [4, 9]: 0.104
- Color description at 1 h [4, 10]: Yellow tinge
- OD405 at 2 hr [4, 10]: 0.186
- Color description at 1 h [4, 11]: Slight yellow
- OD405 at 2 hr [4, 11]: 0.265
- Color description at 1 h [4, 12]: Light yellow
- OD405 at 2 hr [4, 12]: 0.456
- Color description at 1 h [4, 13]: Yellow
- OD405 at 2 hr [4, 13]: 0.593
- Color description at 1 h [4, 14]: Yellow
- OD405 at 2 hr [4, 14]: 0.966
- Color description at 1 h [4, 15]: Light lemon yellow
- OD405 at 2 hr [4, 15]: 1.993
- Color description at 1 h [4, 16]: Intense lemon yellow
- OD405 at 2 hr [4, 16]: 2.873
- Color description at 1 h [4, 17]: Intense lemon yellow
- OD405 at 2 hr [4, 17]: 3.126
- Color description at 1 h [4, 18]: Colorless
- OD405 at 2 hr [4, 18]: 0.044
- Color description at 1 h [4, 19]: Colorless
- OD405 at 2 hr [4, 19]: 0.004
- color of solution after driving out sulfur dioxide [5]: nearly colorless with a yellow tinge
Compound: C[N+](C)(C)[C@@H](Cc1c[nH]c(=S)[nH]1)C(=O)[O-] [ergothioneine]

- pH [7]: 5
- pH [1]: 8 and 10
- % EGT (w/v) ([1]; test sample 0.01%, 0.1N NaOH): 0.052 % (w/v)
- % EGT (w/v) ([1]; test sample 0.05%, 0.1N NaOH): 0.053 % (w/v)
- % EGT (w/v) ([1]; test sample 0.2%, 0.1N NaOH): 0.054 % (w/v)
Compound: O=C(O)CC(O)(CC(=O)O)C(=O)O [citric acid]

- % EGT (w/v) ([1]; test sample 0.01%, 0.1N NaOH): 0.052 % (w/v)
- % EGT (w/v) ([1]; test sample 0.05%, 0.1N NaOH): 0.054 % (w/v)
- % EGT (w/v) ([1]; test sample 0.2%, 0.1N NaOH): 0.058 % (w/v)
Compound: O=P(O)(O)O [phosphoric acid]

- pH ([7]; litmus paper, before boiling, 5 ml 0.1% ergothioneine plus 5 ml addition): 5
- % EGT (w/v) ([1]; test sample 0.01%, 0.1N NaOH): 0.044 % (w/v)
- pH [1, 8]: 10
- % EGT (w/v) ([1]; test sample 0.05%, 0.1N NaOH): 0.037 % (w/v)
- pH [1, 20]: 9.5
- % EGT (w/v) ([1]; test sample 0.2%, 0.1N NaOH): 0.029 % (w/v)
- pH [1, 21]: 6.5
- time to apparent reduction in the amount of ergothioneine (HPLC) ([4]; after addition of sodium metabisulfite, room temperature without boiling): ≤ 10 min
Compound: O=S([O-])S(=O)(=O)[O-].[Na+].[Na+] [sodium metabisulfite]

- pH [1]: 8.5 and 10 and 10.5
- % EGT (w/v) ([1]; test sample 0.01%, 0.1N NaOH): 0.050 % (w/v)
- % EGT (w/v) ([1]; test sample 0.05%, 0.1N NaOH): 0.051 % (w/v)
- % EGT (w/v) ([1]; test sample 0.2%, 0.1N NaOH): 0.052 % (w/v)
Compound: OB(O)O [boric acid]
